System: MCF7 cells
Experiment: Cell proliferation assay (ATPlite), MCF-7
Assay type: cell-based, human
Conditions: inhibition of cell proliferation, 72 h
Method: MCF-7 human breast adenocarcinoma cells and HL-60 acute promyelocytic leukaemia cells were obtained from ATCC (LGC Promochem). HG-1 multiple myeloma cells were obtained from Dr. D. Hose (DKFZ Heidelberg). The CellSensor® HRE-bla HCT116 cell line (colorectal carcinoma) was obtained from Invitrogen.
Cells were grown under humidified 95% air, 5% CO2 at 37° C. in Dulbecco's modified Eagle's medium (DMEM: MCF-7) or RPMI 1640 medium (RPMI: HL-60, HG-1) supplemented with 10% fetal bovine serum (FBS), 100 U/ml penicillin and 100 μg/ml streptomycin, 2 mM L-glutamine, and 2 ng/ml IL-6 (for the HG-1 cell line only). The HCT116 cell line was grown under the same atmospheric conditions in McCoy's 5A medium supplemented with 10% FBS and penicillin/streptomycin as above, in addition to blasticidin as a selection marker at a final concentration of 5 μg/ml.
Cell proliferation experiments were carried out in 96-well tissue culture plates with seeding of 2000 cells/well (MCF-7) or 1000 cells/well (HL-60, HG-1) in 100 μl of the relevant medium. Cells were subsequently incubated under the conditions mentioned for 24 h prior to addition of compounds.
For the determination of compound EC50 values, 10 μl compounds at 11× concentrations in 5.5% DMSO were added to the wells at various concentrations yielding a final constant percentage of 0.5% DMSO at the desired 1× compound concentration. As a positive control, cells were treated with 5.5% DMSO. The cells were then incubated for a further 72 h prior to the measurement.
To determine the degree of inhibition of cell proliferation, cells were treated with ATPlite solution according to the manufacturer's instructions (PerkinElmer, ATPlite 1-step Luminescence ATP Detection Assay System) and luciferase readout measured on an Envision HTS multilabel plate reader (PerkinElmer) in luminescence mode according to established protocols. Raw data were imported into an ActivityBase database (IDBS, ID Business Solutions) and EC50 values calculated using the IDBS program ActivityBase XE. Table 2A and 2B show the IC50 values obtained in the above-outlined cell proliferation assay for exemplary compounds of the invention.

EC50 (Homo sapiens) [nM]	SMILES	EC50 [nM]
1000 to 10000	CC(=O)c1ccc(-c2ccc(C)c(NS(=O)(=O)c3ccc(C)cc3)c2)nc1 [Example 54, N-[5-(5-Acetyl-pyridin-2-yl)-2-methyl-phenyl]-4-methyl-benzenesulfonamide]	–
< 500	Cc1ccc(S(=O)(=O)Nc2cc(-c3ccc([N+](=O)[O-])cn3)ccc2C)cc1 [Example 55, 4-Methyl-N-[2-methyl-5-(5-nitro-pyridin-2-yl)-phenyl]-benzenesulfonamide]	–
500 to 1000	COc1ccc(S(=O)(=O)Nc2cc(-c3cccc(C#N)c3)ccc2C)cc1 [Example 57, N-(3′-Cyano-4-methyl-biphenyl-3-yl)-4-methoxy-benzenesulfonamide]	–
500 to 1000	COc1ccc(S(=O)(=O)Nc2cc(-c3ccccc3C#N)ccc2C)cc1 [Example 58, N-(2′-Cyano-4-methyl-biphenyl-3-yl)-4-methoxy-benzenesulfonamide]	–
500 to 1000	Cc1ccc(S(=O)(=O)Nc2cc(-c3sccc3C#N)ccc2C)cc1 [Example 59, N-[5-(3-Cyano-thiophen-2-yl)-2-methyl-phenyl]-4-methyl-benzenesulfonamide]	–
< 500	COc1ccc(S(=O)(=O)Nc2cc(-c3ccc(C#N)nc3)ccc2C)cc1 [Example 61, N-[5-(6-Cyano-pyridin-3-yl)-2-methyl-phenyl]-4-methoxy-benzenesulfonamide]	–
< 500	COc1ccc(S(=O)(=O)Nc2cc(-c3ccsc3C#N)ccc2C)cc1 [Example 62, N-[5-(2-Cyano-thiophen-3-yl)-2-methyl-phenyl]-4-methoxy-benzenesulfonamide]	–
500 to 1000	Cc1ccc(S(=O)(=O)Nc2cc(-c3ncc(C#N)cn3)ccc2C)cc1 [Example 64, N-[5-(5-Cyano-pyrimidin-2-yl)-2-methyl-phenyl]-4-methyl-benzenesulfonamide]	–
< 500	COc1ccc(S(=O)(=O)Nc2cc(-c3ccc(C#N)c(C#N)c3)ccc2C)cc1 [Example 65, N-(3′,4′-Dicyano-4-methyl-biphenyl-3-yl)-4-methoxy-benzenesulfonamide]	–
500 to 1000	Cc1ccc(S(=O)(=O)Nc2cc(-c3cccc(N(C)C)n3)ccc2C)cc1 [Example 66, N-[5-(6-Dimethylamino-pyridin-2-yl)-2-methyl-phenyl]-4-methyl-benzenesulfonamide]	–
1000 to 10000	Cc1ccc(S(=O)(=O)Nc2cc(-c3cc(C)cc(C)n3)ccc2C)cc1 [Example 67, N-[5-(4,6-Dimethyl-pyridin-2-yl)-2-methyl-phenyl]-4-methyl-benzenesulfonamide]	–
< 500	Cc1ccc(S(=O)(=O)Nc2cc(-c3cscc3C#N)ccc2C)cc1 [Example 69, N-[5-(4-Cyano-thiophen-3-yl)-2-methyl-phenyl]-4-methyl-benzenesulfonamide]	–
–	Cc1ccc(S(=O)(=O)Nc2cc(-c3occc3C#N)ccc2C)cc1 [Example 70, N-[5-(3-Cyo-furan-2-yl)-2-methyl-phenyl]-4-methyl-benzenesulfonamide]	< 500
500 to 1000	COc1ccc(S(=O)(=O)Nc2cc(-c3ccnc(C#N)c3)ccc2C)cc1 [Example 75, N-[5-(2-Cyano-pyridin-4-yl)-2-methyl-phenyl]-4-methoxy-benzenesulfonamide]	–
< 500	Cc1ccc(S(=O)(=O)Nc2cc(-c3ccc([N+](=O)[O-])o3)ccc2C)cc1 [Example 76, 4-Methyl-N-[2-methyl-5-(5-nitro-furan-2-yl)-phenyl]-benzenesulfonamide]	–
< 500	Cc1ccc(-c2ccc(C#N)s2)cc1NS(=O)(=O)c1ccc(Cl)cc1 [Example 77, 4-Chloro-N-[5-(5-cyano-thiophen-2-yl)-2-methyl-phenyl]-benzenesulfonamide]	–
500 to 1000	Cc1ccc(-c2ccc(C#N)s2)cc1NS(=O)(=O)c1ccc(C(F)(F)F)cc1 [Example 78, N-[5-(5-Cyano-thiophen-2-yl)-2-methyl-phenyl]-4-trifluoromethyl-benzenesulfonamide]	–
1000 to 10000	Cc1ccc(-c2ccc(C#N)s2)cc1NS(=O)(=O)c1ccc(OC(F)(F)F)cc1 [Example 79, N-[5-(5-Cyano-thiophen-2-yl)-2-methyl-phenyl]-4-trifluoromethoxy-benzenesulfonamide]	–
< 500	COc1ccc(-c2ccc(C)c(NS(=O)(=O)c3ccc(OC)cc3)c2)cc1 [Example 81, 4-Methoxy-N-(4′-methoxy-4-methyl-biphenyl-3-yl)-benzenesulfonamide]	–

EC50 (Homo sapiens) [nM]	SMILES	EC50 [nM]
1000 to 10000	COc1ccc(S(=O)(=O)Nc2cc(-c3ccc(SC)cc3)ccc2C)cc1 [Example 82, 4-Methoxy-N-(4-methyl-4′-methylsulfanyl-biphenyl-3-yl)-benzenesulfonamide]	–
1000 to 10000	COc1ccc(S(=O)(=O)Nc2cc(-c3ccc(OC(F)(F)F)cc3)ccc2C)cc1 [Example 83, 4-Methoxy-N-(4-methyl-4′-trifluoromethoxy-biphenyl-3-yl)-benzenesulfonamide]	–
500 to 1000	C#Cc1ccc(-c2ccc(C)c(NS(=O)(=O)c3ccc(C)cc3)c2)cc1 [Example 84, N-(4′-Ethynyl-4-methyl-biphenyl-3-yl)-4-methyl-benzenesulfonamide]	–
< 500	COc1ccc(S(=O)(=O)Nc2cc(-c3ccc(C#N)cc3)ccc2C)cc1F [Example 85, N-(4′-Cyano-4-methyl-biphenyl-3-yl)-3-fluoro-4-methoxy-benzenesulfonamide]	–
1000 to 10000	Cc1ccc(-c2ccc(C#N)cc2)cc1NS(=O)(=O)c1ccc([N+](=O)[O-])cc1 [Example 86, N-(4′-Cyano-4-methyl-biphenyl-3-yl)-4-nitro-benzenesulfonamide]	–
< 500	Cc1ccc(-c2ccc(C#N)cc2)cc1NS(=O)(=O)c1ccc(N)cc1 [Example 87, 4-Amino-N-(4′-cyano-4-methyl-biphenyl-3-yl)-benzenesulfonamide]	–
< 500	Cc1ccc(S(=O)(=O)Nc2cc(-c3ccc(C#N)cc3)ccc2C)cc1F [Example 88, N-(4′-Cyano-4-methyl-biphenyl-3-yl)-3-fluoro-4-methyl-benzenesulfonamide]	–
< 500	COc1ccc(S(=O)(=O)Nc2cc(-c3ccc(C#N)c(OC)c3)ccc2C)cc1 [Example 89, N-(4′-Cyano-3′-methoxy-4-methyl-biphenyl-3-yl)-4-methoxy-benzenesulfonamide]	–
< 500	COc1ccc(S(=O)(=O)Nc2cc(-c3ccc(C#N)c(O)c3)ccc2C)cc1 [Example 90, N-(4′-Cyano-3′-hydroxy-4-methyl-biphenyl-3-yl)-4-methoxy-benzenesulfonamide]	–
500 to 1000	Cc1ccc(-c2ccc(C#N)s2)cc1NS(=O)(=O)c1ccc(F)cc1 [Example 91, N-[5-(5-Cyano-thiophen-2-yl)-2-methyl-phenyl]-4-fluoro-benzenesulfonamide]	–
< 500	COc1ccc(S(=O)(=O)Nc2cc(-c3ccc(C#N)s3)ccc2C)cc1F [Example 92, N-[5-(5-Cyano-thiophen-2-yl)-2-methyl-phenyl]-3-fluoro-4-methoxy-benzenesulfonamide]	–
< 500	Cc1ccc(-c2ccc(C#N)s2)cc1NS(=O)(=O)c1ccc(N)cc1 [Example 93, 4-Amino-N-[5-(5-cyano-thiophen-2-yl)-2-methyl-phenyl]-benzenesulfonamide]	–
< 500	Cc1ccc(S(=O)(=O)Nc2cc(C)cc(-c3csc(C)c3)c2)cc1 [Example 94, 4-Methyl-N-[3-methyl-5-(5-methyl-thiophen-3-yl)-phenyl]-benzenesulfonamide]	–
1000 to 10000	Cc1ccc(-c2csc(C#N)c2)cc1NS(=O)(=O)c1ccc([N+](=O)[O-])cc1 [Example 96, N-(5-(5-cyanothiophen-3-yl)-2-methylphenyl)-4-nitrobenzenesulfonamide]	–
< 500	Cc1ccc(-c2ccc(C#N)cc2)cc1NS(=O)(=O)c1ccc(Cl)cc1 [Example 97, 4-chloro-N-(4′-cyano-4-methylbiphenyl-3-yl)benzenesulfonamide]	–
500 to 1000	Cc1ccc(-c2ccc(C#N)s2)cc1NS(=O)(=O)c1ccc(O)cc1 [Example 98, N-(5-(5-cyanothiophen-2-yl)-2-methylphenyl)-4-hydroxybenzenesulfonamide]	–
< 500	COc1cc(-c2ccc(C)c(NS(=O)(=O)c3ccc(C)c(F)c3)c2)ccc1C#N [Example 99, N-(4′-cyano-3′-methoxy-4-methylbiphenyl-3-yl)-3-fluoro-4-methylbenzenesulfonamide]	–
1000 to 10000	Cc1ccc(-c2ccc(C#N)cc2)cc1NS(=O)(=O)c1ccc(O)cc1 [Example 100, N-(4′-cyano-4-methylbiphenyl-3-yl)-4-hydroxybenzenesulfonamide]	–
1000 to 10000	COc1cc(-c2ccc(C)c(NS(=O)(=O)c3ccc([N+](=O)[O-])cc3)c2)ccc1C#N [Example 101, N-(4′-cyano-3′-methoxy-4-methylbiphenyl-3-yl)-4-nitrobenzenesulfonamide]	–

— patent US20120095024A1, “TOLUIDINE SULFONAMIDES AND THEIR USE” (Elara Pharmaceuticals GmbH, priority 2008, published 2012)
